The test system of one assay is male Wistar rats. The assay can be described thus: Inhibitory effect for defecation at the time of confined stress loading (rat confined stress defecation model). It is filed as in vivo. The settings on record: for action to suppress defecation (number of feces): 10 mg/kg p.o., compound used independently, feces counted 1 hour after stress loading, 10 mg/kg; for number of feces, significant difference in comparison with the non-administration group: rat, 1, 3 and 10 mg/kg administration groups, N=10. On the procedure:
Test Method (4) Inhibitory Effect for Defecation at the Time of Confined Stress Loading
The IBS-treating effect of the compound (I) of the present invention was evaluated using a method in which a confined stress is applied to rats and the evacuation quantity is measured (cf. “The Journal of Pharmacology Experimental Therapeutics”, (USA), 1992, vol. 261, p. 297-303).
An agent to be tested was administered to male Wistar rats (body weight 250 to 320 g, 10 animals for each group) and a confined stress was applied thereto 30 minutes thereafter. A confining cage (trade name: KN-468, 265 mm in width×95 mm in length×200 mm in height, Natsume Seisakusho, Tokyo) was used in the confined stress loading, and the number of feces during 1 hour after the stress loading was counted.

The subject of another assay is Hartley male guinea pigs. The assay can be described thus: Preventive effect in guinea pig migraine model (5-HT-induced dura mater protein leakage). It counts as in vivo. The settings on record: for minimum amount showing the maximum drug efficacy / dose at which the leaked protein quantity-reducing action was shown / lowering of leaked protein quantity to the standard value when the dose was increased: intravenous; for dose at which the leaked protein quantity-reducing action was shown: 5-HT-induced leakage; for lowering of leaked protein quantity to the standard value when the dose was increased: RS-127445 3 to 10 mg/kg, SB-269970 10 to 30 mg/kg. How it is done:
Test Method (5) Preventive Effect in Guinea Pig Migraine Model
This test system evaluates the migraine-preventive effect by measuring the amount of this leaked protein in the presence of a compound to be tested and was carried out by partially modifying the method described by Rachel A. Spokes and Vicki C. Middlefell in “European Journal of Pharmacology”, (Holland), 1995, vol. 281, p. 75-79.
Hartley male guinea pigs (250 to 350 g) were anesthetized by the intraperitoneal administration (i.p.) of urethane (1.5 g/kg). By applying a simple canulation to a latent vein, 50 mg/kg of a fluorescent protein (FITC-BSA) was intravenously administered (i.v.) and, 5 minutes thereafter, physiological saline or 1 μmol/ml/kg of 5-HT was intravenously administered. Perfusion was carried out with physiological saline 15 minutes thereafter and blood was washed out. […] By detaching the skull, the dura mater was extracted and incubated in an Eppendorf tube at 37° C. for 16 hours in the presence of physiological saline adjusted to pH 11. By carrying out a centrifugal operation, the supernatant was dispensed into a plate. The fluorescence intensity was measured using a fluorescence plate reader (excitation wavelength 485 nm, […] 530 nm). By weighing the dura mater weight, the fluorescence intensity per mg dura mater protein was calculated.
The values of fluorescence intensity measured at the time of the administration and non-administration of each compound are shown in FIG. 4 to FIG. 7.

The target of a further assay is T1, human 5-HT7 receptor (Homo sapiens, UniProt P34969).
T1 construct: expressed in transfected cells; host or cells: CHO cells (membrane sample)
The assay is described as follows: 5-HT7 receptor binding test. The conditions noted are these: [3H] 5-HT, human 5-HT7 receptor expressing CHO cell membrane. On the procedure:
Test Method (2) 5-HT7 Receptor Binding Test (i) Membrane Sample Preparation
Cultured human 5-HT7 receptor expressing CHO cells were washed PBS(−). The cells were peeled off using a scraper in the presence of PBS(−), and the cells were recovered by a centrifugal treatment (1,000 rpm, 10 min, 4° C.). In the presence of 5 mM Tris-HCl (pH 7.4) buffer, these were homogenized using a homogenizer (registered trademark: Polytron (PTA 10-TS)) and subjected to a centrifugal treatment (40,000×g, 10 min, 4° C.). In the presence of 50 mM Tris-HCl (pH 7.4) buffer, these were suspended using a glass-Teflon (registered trademark) homogenizer. By carrying out a centrifugal treatment (40,000×g, 10 min, 4° C.), these were suspended in 50 mM Tris-HCl (pH 7.4) and stored at −80° C.
(§1) (ii) Receptor Binding Test
(§2) A total volume of 500 μl containing 50 mM Tris-HCl, 4 mM CaCl2 (pH 7.4) buffer, the human 5-HT7 receptor expressing CHO cell membrane sample and a radio ligand [^3H] 5-HT (3.40 TBq/mmol) was incubated at 25° C. for 1 hour. The compound was dissolved in 100% DMSO and diluted to respective concentrations. Nonspecific binding was regarded as the binding quantity in the presence of 10 μM metergoline, and a result of subtracting the nonspecific binding quantity from the total binding quantity was regarded as the specific binding quantity. By adding 4 ml of 50 mM Tris-HCl buffer (pH 7.4), filtered under a reduced pressure trough a GF/B glass filter, and the filter was washed with the same buffer (4 ml×3). The glass filter was soaked in 5 ml of a liquid scintillator (trade name: Aquasol-2), and the radioactivity quantity was measured using a liquid scintillation counter.

Assay [1] deals with T2, 5-HT2B receptor (Homo sapiens, UniProt P41595). The assay can be described thus: 5-HT2B receptor binding test. Details: expressed in transfected cells; host or cells: HEK293-EBNA cells (membrane sample). The conditions noted are these: [3H] Mesulergine, human 5-HT2B receptor expressing HEK293-EBNA cell membrane. On the procedure:
Test Method (1) 5-HT2B Receptor Binding Test
(i) Membrane Sample Preparation
Cultured human 5-HT2B receptor-expressing HEK293-EBNA cells were washed with a phosphate buffer (PBS)(−). The cells were peeled off using a scraper in the presence of PBS(−), and the cells were recovered by a centrifugal treatment (1,000 rpm, 10 min, 4° C.). In the presence of 5 mM tris-hydrochloric acid (Tris-HCl) (pH 7.4) buffer, these were homogenized using a homogenizer (registered trademark: Polytron (PTA 10-TS)) and subjected to a centrifugal treatment (40,000×g, 10 min, 4° C.). In the presence of 50 mM Tris-HCl (pH 7.4) buffer, these were suspended using a glass-Teflon (registered trademark) homogenizer. By carrying out a centrifugal treatment (40,000×g, 10 min, 4° C.), these were suspended in 50 mM Tris-HCl (pH 7.4) and stored at −80° C.
as §1
as §2, with “Tris-HCl, 4-mM-CaCl2” for “Tris-HCl, 4 mM CaCl2”, “human 5-HT2B” for “human 5-HT7”, “expressing HEK293-EBNA” for “expressing CHO”, “[^3H] Mesulergine (3.1 TBq/mmol);” for “[^3H] 5-HT (3.40 TBq/mmol)”, “of 1” for “of 10”, “μM ritanserin,” for “μM metergoline,”

Assay [2] addresses T2, 5-HT2B receptor. The conditions noted are these: literature value; cited from earlier work.

T2 sequence (P41595 whole entry): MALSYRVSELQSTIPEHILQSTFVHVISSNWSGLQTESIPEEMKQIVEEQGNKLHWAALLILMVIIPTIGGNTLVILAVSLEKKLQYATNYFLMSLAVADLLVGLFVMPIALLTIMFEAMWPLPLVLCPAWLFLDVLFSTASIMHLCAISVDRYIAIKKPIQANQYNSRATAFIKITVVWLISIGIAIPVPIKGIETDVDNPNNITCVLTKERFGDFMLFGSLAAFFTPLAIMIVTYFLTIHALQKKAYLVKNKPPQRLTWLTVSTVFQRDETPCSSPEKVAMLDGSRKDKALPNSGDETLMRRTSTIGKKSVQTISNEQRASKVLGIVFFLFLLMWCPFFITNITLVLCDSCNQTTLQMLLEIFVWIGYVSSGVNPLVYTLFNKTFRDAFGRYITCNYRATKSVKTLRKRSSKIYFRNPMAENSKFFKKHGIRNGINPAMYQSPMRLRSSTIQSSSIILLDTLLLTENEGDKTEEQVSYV
T1 sequence (P34969 whole entry): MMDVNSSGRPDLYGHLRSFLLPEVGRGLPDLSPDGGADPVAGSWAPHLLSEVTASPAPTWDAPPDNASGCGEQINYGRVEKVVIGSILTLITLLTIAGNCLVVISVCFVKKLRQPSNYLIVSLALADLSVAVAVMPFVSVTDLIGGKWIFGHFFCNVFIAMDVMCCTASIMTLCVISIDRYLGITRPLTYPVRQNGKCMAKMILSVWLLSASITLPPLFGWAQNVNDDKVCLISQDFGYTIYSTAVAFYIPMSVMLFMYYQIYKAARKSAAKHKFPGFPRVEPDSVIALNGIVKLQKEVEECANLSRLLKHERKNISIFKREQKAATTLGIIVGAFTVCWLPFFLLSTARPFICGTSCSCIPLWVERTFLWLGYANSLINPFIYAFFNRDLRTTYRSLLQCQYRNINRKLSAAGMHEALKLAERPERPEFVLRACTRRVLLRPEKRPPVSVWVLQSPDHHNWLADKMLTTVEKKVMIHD

As to `CC1CCN(CC[C@H]2CCCN2S(=O)(=O)c2cccc(O)c2)CC1` [SB-269970, (R)-3-(2-(2-(4-methylpiperidine-1-yl)ethyl)pyrrolidine-1-sulfonyl)phenol], the “action to suppress defecation (number of feces)” value in the assay with male Wistar rats (rat) was “did not show the action to suppress defecation”. Also, the “number of feces, significant difference in comparison with the non-administration group” value in the assay on male Wistar rats is “Significant difference was not found”. Further, in the assay with Hartley male guinea pigs, the “minimum amount showing the maximum drug efficacy” value turned out to be 10 mg/kg, the “dose at which the leaked protein quantity-reducing action was shown” value is recorded as 10 mg/kg and the “lowering of leaked protein quantity to the standard value when the dose was increased” value is “did not lower the leaked protein quantity to the standard value”.
As to `NC(N)=NC(=O)c1ccc2c(c1)C1(SCCS1)c1ccsc1-2` [Example 81, N-(diaminomethylene)spiro[1,3-dithiolan-2,4′-indeno[1,2-b]thiophene]-6′-carboxamide], the Ki is 0.78 nM on human 5-HT7 receptor and 0.83 nM on 5-HT2B receptor [1].
On to `NC(N)=NC(=O)c1ccc2c(c1)C1(CCCO1)c1ccsc1-2` (centres unmarked) [Example 84, N-(diaminomethylene)-4,5-dihydro-3H-spiro[furan-2,4′-indeno[1,2-b]thiophene]-6′-carboxamide], for which the ED50 in the assay with male Wistar rats (po, rat, p.o., read-out: ED50 (50% effective dose), suppressing action on defecation) worked out at 0.72 mg/kg. The Ki worked out at 2.5 nM at human 5-HT7 receptor and 1.3 nM at 5-HT2B receptor [1].
`CC(C)c1cc(-c2ccc(F)c3ccccc23)nc(N)n1` [RS-127445, 2-amino-4-(4-fluoronaphth-1-yl)-6-isopropylpyrimidine]: the “action to suppress defecation (number of feces)” value in the assay on male Wistar rats (rat) is “did not show the action to suppress defecation”. For the same molecule, in the assay on male Wistar rats, the “number of feces, significant difference in comparison with the non-administration group” value is listed as “Significant difference was not found”. The “5-HT2B receptor-selective against 5-HT1A, 5-HT1B, 5-HT2A, 5-HT2C, 5-HT3, 5-HT6, 5-HT7, α1, M1, D2 and the like receptors” value on 5-HT2B receptor [2] is recorded as at least 1000 times. For the same molecule, in the assay with Hartley male guinea pigs, the “minimum amount showing the maximum drug efficacy” value amounted to 3 mg/kg, the “dose at which the leaked protein quantity-reducing action was shown” value is 3 mg/kg and the “lowering of leaked protein quantity to the standard value when the dose was increased” value was “did not lower it to the standard value”.
`CC(C)n1c2ccccc2c2ccc(C(=O)N=C(N)N)cc21` [Example 1, N-(diaminomethylene)-9-isopropyl-9H-carbazole-2-carboxamide]: the Ki stood at 0.64 nM at human 5-HT7 receptor and 4.6 nM at 5-HT2B receptor [1]. The leaked protein quantity entry in the assay on Hartley male guinea pigs (30 mg/kg oral administration) was “almost completely suppressed the leaked protein quantity”.
Turning to `COC1(C)c2cc(C(=O)N=C(N)N)ccc2-c2sccc21` (centres unmarked) [Example 83], the Ki at human 5-HT7 receptor came out at 0.99 nM; on 5-HT2B receptor [1], 1.5 nM.
In the case of `CC(C)N1c2ccccc2Oc2ccc(C(=O)N=C(N)N)cc21` [Example 66, N-(diaminomethylene)-10-isopropyl-10H-phenoxazine-2-carboxamide], the figures for the Ki at human 5-HT7 receptor and on 5-HT2B receptor [1] were 2.6 nM and 0.26 nM, respectively.

By Ki is commonly meant the equilibrium dissociation constant of an inhibitor or competing ligand from its target. What is called ED50 is the dose that gives a 50% effect, or the effect in half of the subjects.
